Data as given in patent publication US20240254118A1, “PRMT5 INHIBITORS AND USES THEREOF” (Gilead Sciences, Inc., priority 2022, published 2024).

Tests used:
[1] = system: HCT116 MTAP-deleted cells; assay: Cell viability assay (CellTiter-Glo, 7 days), HCT116 MTAP-deleted; details: Homo sapiens, HCT-116, 168 h
[2] = system: SDMA signal (PRMT5 inhibition) in HCT116 MTAP-deleted cells; assay: Symmetric di-methyl arginine image-based high content screen assay (SDMA assay), HCT116 MTAP-deleted; format: cell-based; details: SDMA assay; for EC50: Homo sapiens, HCT-116, 72 h, 3 days of treatment, cell line not given, taken as HCT116 MTAP-deleted, read-out: EC50 (SDMA assay); for EC50 selectivity (SDMA assay): taken as HCT116 WT versus MTAP-deleted
How it was run: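 HCT116 MTAP-deleted cells treated with compound until Day 3, then formalin-fixed, permeabilized and immunostained for SDMA, with DAPI nuclear counterstain. Imaged by high-content microscopy; SDMA read-out is mean Alexa 488 intensity per DAPI-defined cell, reflecting PRMT5 inhibition.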

| Compound | CC50 [1] [nM] | EC50 [2] [nM] | EC50 selectivity (SDMA assay) [2] |
| --- | --- | --- | --- |
| CN(C(=O)C1CC1)N(Cc1ccc(C(F)(F)F)cn1)C(=O)c1ccc2nc(N)c3cnn(C)c3c2c1 [Example 111, 4-amino-N′-(cyclopropanecarbonyl)-N′,1-dimethyl-N-[[5-(trifluoromethyl)-2-pyridyl]methyl]pyrazolo[4,3-c]quinoline-8-carbohydrazide] | < 100 | < 1 | 129 |
| CN(C(=O)OC1CCC1)N(Cc1ccc(C(F)(F)F)cn1)C(=O)c1ccc2nc(N)c3cnn(C)c3c2c1 [Example 112, cyclobutyl N-[(4-amino-1-methyl-pyrazolo[4,3-c]quinoline-8-carbonyl)-[[5-(trifluoromethyl)-2-pyridyl]methyl]amino]-N-methyl-carbamate] | < 100 | < 1 | 46 |
| CN(C(=O)c1ccncc1)N(Cc1ccc(C(F)(F)F)cn1)C(=O)c1ccc2nc(N)c3cnn(C)c3c2c1 [Example 113, 4-amino-N′,1-dimethyl-N′-(pyridine-4-carbonyl)-N-[[5-(trifluoromethyl)-2-pyridyl]methyl]pyrazolo[4,3-c]quinoline-8-carbohydrazide] | 100 to 1000 | 1 to 5 | 404 |
| CC(=O)N(c1ncccn1)N(Cc1ccc(C(F)(F)F)cn1)C(=O)c1ccc2nc(N)c3cnn(C)c3c2c1 [Example 114, N′-acetyl-4-amino-1-methyl-N′-pyrimidin-2-yl-N-[[5-(trifluoromethyl)-2-pyridyl]methyl]pyrazolo[4,3-c]quinoline-8-carbohydrazide] | < 100 | < 1 | 32 |
| CC(=O)N(CC(F)F)N(Cc1ccc(C(F)(F)F)cn1)C(=O)c1ccc2nc(N)c3cnn(C)c3c2c1 [Example 115, N′-acetyl-4-amino-N′-(2,2-difluoroethyl)-1-methyl-N-[[5-(trifluoromethyl)-2-pyridyl]methyl]pyrazolo[4,3-c]quinoline-8-carbohydrazide] | 100 to 1000 | 1 to 5 | 382 |
| CC(=O)N(CC(F)(F)F)N(Cc1ccc(C(F)(F)F)cn1)C(=O)c1ccc2nc(N)c3cnn(C)c3c2c1 [Example 116, N′-acetyl-4-amino-1-methyl-N′-(2,2,2-trifluoroethyl)-N-[[5-(trifluoromethyl)-2-pyridyl]methyl]pyrazolo[4,3-c]quinoline-8-carbohydrazide] | 100 to 1000 | 1 to 5 | 189 |
| CN(C(=O)C1(F)CC1)N(Cc1ccc(C(F)(F)F)cn1)C(=O)c1ccc2nc(N)c3cnn(C)c3c2c1 [Example 117, 4-amino-N′-(1-fluorocyclopropanecarbonyl)-N′,1-dimethyl-N-[[5-(trifluoromethyl)-2-pyridyl]methyl]pyrazolo[4,3-c]quinoline-8-carbohydrazide] | < 100 | < 1 | 34 |
| CN(C(=O)c1ccccn1)N(Cc1ccc(C(F)(F)F)cn1)C(=O)c1ccc2nc(N)c3cnn(C)c3c2c1 [Example 118, 4-amino-N′,1-dimethyl-N′-picolinoyl-N-((5-(trifluoromethyl)pyridin-2-yl)methyl)-1H-pyrazolo[4,3-c]quinoline-8-carbohydrazide] | < 100 | < 1 | 96 |
| CN(C(=O)C(C)(C)C)N(Cc1ccc(C(F)(F)F)cn1)C(=O)c1ccc2nc(N)c3cnn(C)c3c2c1 [Example 119, 4-amino-N′,1-dimethyl-N′-pivaloyl-N-((5-(trifluoromethyl)pyridin-2-yl)methyl)-1H-pyrazolo[4,3-c]quinoline-8-carbohydrazide] | < 100 | < 1 | 156 |
| CC(C)C(=O)N(C)N(Cc1ccc(C(F)(F)F)cn1)C(=O)c1ccc2nc(N)c3cnn(C)c3c2c1 [Example 120, 4-amino-N′-isobutyryl-N′,1-dimethyl-N-((5-(trifluoromethyl)pyridin-2-yl)methyl)-1H-pyrazolo[4,3-c]quinoline-8-carbohydrazide] | < 100 | < 1 | 542 |
| CN(C(=O)C(C)(C)F)N(Cc1ccc(C(F)(F)F)cn1)C(=O)c1ccc2nc(N)c3cnn(C)c3c2c1 [Example 121, 4-amino-N′-(2-fluoro-2-methylpropanoyl)-N′,1-dimethyl-N-((5-(trifluoromethyl)pyridin-2-yl)methyl)-1H-pyrazolo[4,3-c]quinoline-8-carbohydrazide] | < 100 | < 1 | 106 |
| CN(C(=O)C1CC1)N(Cc1ccc(F)cc1F)C(=O)c1ccc2nc(N)c3cnn(C)c3c2c1 [Example 122, 4-amino-N′-(cyclopropanecarbonyl)-N-(2,4-difluorobenzyl)-N′,1-dimethyl-1H-pyrazolo[4,3-c]quinoline-8-carbohydrazide] | < 100 | < 1 | 261 |
| Cn1ncc2c(N)nc3ccc(C(=O)N(Cc4cn5cc(Cl)ccc5n4)N4CCCC4=O)cc3c21 [Example 123, 4-Amino-N-[(6-chloroimidazo[1,2-a]pyridin-2-yl)methyl]-1-methyl-N-(2-oxopyrrolidin-1-yl)pyrazolo[4,3-c]quinoline-8-carboxamide] | < 100 | < 1 | 39 |
| CN1CCN(N(Cc2cn3ccc(Cl)cc3n2)C(=O)c2ccc3nc(N)c4cnn(C)c4c3c2)C1=O [Example 125, 4-Amino-N-[(7-chloroimidazo[1,2-a]pyridin-2-yl)methyl]-1-methyl-N-(3-methyl-2-oxo-imidazolidin-1-yl)pyrazolo[4,3-c]quinoline-8-carboxamide] | < 100 | 1 to 5 | 60 |
| CN(C(=O)N1CCC1)N(Cc1ccc(C(F)(F)F)cn1)C(=O)c1ccc2nc(N)c3cnn(C)c3c2c1 [Example 126, 4-amino-N′-(azetidine-1-carbonyl)-N′,1-dimethyl-N-((5-(trifluoromethyl)pyridin-2-yl)methyl)-1H-pyrazolo[4,3-c]quinoline-8-carbohydrazide] | < 100 | < 1 | 45 |
| CN(C(=O)N1CC2CC2C1)N(Cc1ccc(C(F)(F)F)cn1)C(=O)c1ccc2nc(N)c3cnn(C)c3c2c1 (stereo not drawn) [Example 127, 4-amino-N′-(3-azabicyclo[3.1.0]hexane-3-carbonyl)-N′,1-dimethyl-N-((5-(trifluoromethyl)pyridin-2-yl)methyl)-1H-pyrazolo[4,3-c]quinoline-8-carbohydrazide] | < 100 | 1 to 5 | 228 |
| CN(C(=O)N1CC2CC1C2)N(Cc1ccc(C(F)(F)F)cn1)C(=O)c1ccc2nc(N)c3cnn(C)c3c2c1 [Example 128, 4-amino-N′-(2-azabicyclo[2.1.1]hexane-2-carbonyl)-N′,1-dimethyl-N-((5-(trifluoromethyl)pyridin-2-yl)methyl)-1H-pyrazolo[4,3-c]quinoline-8-carbohydrazide] | < 100 | < 1 | 131 |
| CN(c1ncccn1)N(Cc1cn2cc(Cl)ccc2n1)C(=O)c1ccc2nc(N)c3cnn(C)c3c2c1 [Example 129, 4-amino-N-[(6-chloroimidazo[1,2-a]pyridin-2-yl)methyl]-N′,1-dimethyl-N′-pyrimidin-2-yl-pyrazolo[4,3-c]quinoline-8-carbohydrazide] | < 100 | < 1 | 11 |
| Cn1cc(-c2ccc(CN(C(=O)c3ccc4nc(N)c5cnn(C)c5c4c3)N3CCCCC3=O)nc2)cn1 [Example 130, 4-amino-1-methyl-N-((5-(1-methyl-1H-pyrazol-4-yl)pyridin-2-yl)methyl)-N-(2-oxopiperidin-1-yl)-1H-pyrazolo[4,3-c]quinoline-8-carboxamide] | < 100 | 1 to 5 | 34 |
| Nc1nc2cc(F)c(C(=O)N3CCCCN3c3ccc(C(F)(F)F)cn3)cc2c2cscc12 [Example 131, (4-amino-7-fluoro-thieno[3,4-c]quinolin-8-yl)-[2-[5-(trifluoromethyl)-2-pyridyl]hexahydropyridazin-1-yl]methanone] | > 1000 | > 5 | 279 |
| Nc1nc2cc(F)c(C(=O)N3CCCN3c3ccc(C(F)(F)F)cn3)cc2c2cscc12 [Example 132, (4-amino-7-fluoro-thieno[3,4-c]quinolin-8-yl)-[2-[5-(trifluoromethyl)-2-pyridyl]pyrazolidin-1-yl]methanone] | > 1000 | > 5 | 3193 |
| Cn1ncc2c(N)nc3ccc(C(=O)N(Cc4ccc(C(F)(F)F)cn4)N4CCOC4=O)cc3c21 [Example 133, 4-amino-1-methyl-N-(2-oxooxazolidin-3-yl)-N-((5-(trifluoromethyl)pyridin-2-yl)methyl)-1H-pyrazolo[4,3-c]quinoline-8-carboxamide] | < 100 | < 1 | 92 |
| CN1CCN(N(Cc2ccc(C(F)(F)F)cn2)C(=O)c2cc3c(cc2F)nc(N)c2cnn(C)c23)C1=O [Example 134, 4-amino-7-fluoro-1-methyl-N-(3-methyl-2-oxoimidazolidin-1-yl)-N-((5-(trifluoromethyl)pyridin-2-yl)methyl)-1H-pyrazolo[4,3-c]quinoline-8-carboxamide] | < 100 | 1 to 5 | 18 |
| Cn1ncc2c(N)nc3ccc(C(=O)N(Cc4nc(C(F)(F)F)cs4)N4CCCOC4=O)cc3c21 [Example 135, 4-amino-1-methyl-N-(2-oxo-1,3-oxazinan-3-yl)-N-((4-(trifluoromethyl)thiazol-2-yl)methyl)-1H-pyrazolo[4,3-c]quinoline-8-carboxamide] | 100 to 1000 | 1 to 5 | 495 |
